Results on 11 compounds are retold here after patent publication US8648066B2 (Exelixis, Inc., priority 2009, dated 2014).

The target of one assay is PI3Kα (Homo sapiens, UniProt P42336). The assay can be described thus: PI3K biochemical assay (luciferase-luciferin ATP consumption). The note with it: 1.5 nM enzyme, 1 μM ATP, 10 μM PIP2; read-out: IC50 for PI3Kα in this assay. As for the experimental part:
PI3Kα activity is measured as the percent of ATP consumed following the kinase reaction using luciferase-luciferin-coupled chemiluminescence. Reactions were conducted in 384-well white, medium binding microtiter plates (Greiner). Kinase reactions were initiated by combining test compounds, ATP, substrate (PIP2), and kinase in a 20 μL volume in a buffer solution. The standard PI3Kalpha assay buffer is composed 50 mM Tris, pH 7.5, 1 mM EGTA, 10 mM MgCl2, 1 mM DTT and 0.03% CHAPS. The standard assay concentrations for enzyme, ATP, and substrate are 1.5 nM, 1 μM, and 10 μM, respectively. The reaction mixture was incubated at ambient temperature for approximately 2 h. Following the kinase reaction, a 10 μL aliquot of luciferase-luciferin mix (Promega Kinase-Glo) was added and the chemiluminescence signal measured using a Victor2 plate reader (Perkin Elmer). Total ATP consumption was limited to 40-60% and IC50 values of control compounds correlate well with literature references. Substituting PI3Kα with PI3Kβ, PI3Kγ, or PI3Kδ, the inhibitory activity of the compounds for the other isoforms of I3K were measured.

The target in the next assay is mTOR/GbL/Raptor (mTORC1) (Homo sapiens, UniProt P42345). The experiment in a line: mTOR/GbL/Raptor (mTORC1) ELISA assay. The note with it: phosphorylation of 4E-BP1; 0.2 nM mTORC1, 10 μM ATP; read-out: IC50 in this assay (mTORC1 ELISA). The class given is biochemical. The essentials:
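ELISA read-out: phospho-4E-BP1 captured on Ni-chelate plates and detected with anti-phospho antibody plus HRP-anti-IgG luminescence. The kinase step ran 120 min at ambient temperature with 0.2 nM human mTORC1, 10 µM ATP, 50 nM His-4E-BP1, 10 mM MnCl2, pH 7.2 HEPES.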
On the technique in general: An ELISA detects its analyte on a solid surface through an enzyme-linked reagent.

PI3Kα, sequence (P42336 whole entry, species assumed): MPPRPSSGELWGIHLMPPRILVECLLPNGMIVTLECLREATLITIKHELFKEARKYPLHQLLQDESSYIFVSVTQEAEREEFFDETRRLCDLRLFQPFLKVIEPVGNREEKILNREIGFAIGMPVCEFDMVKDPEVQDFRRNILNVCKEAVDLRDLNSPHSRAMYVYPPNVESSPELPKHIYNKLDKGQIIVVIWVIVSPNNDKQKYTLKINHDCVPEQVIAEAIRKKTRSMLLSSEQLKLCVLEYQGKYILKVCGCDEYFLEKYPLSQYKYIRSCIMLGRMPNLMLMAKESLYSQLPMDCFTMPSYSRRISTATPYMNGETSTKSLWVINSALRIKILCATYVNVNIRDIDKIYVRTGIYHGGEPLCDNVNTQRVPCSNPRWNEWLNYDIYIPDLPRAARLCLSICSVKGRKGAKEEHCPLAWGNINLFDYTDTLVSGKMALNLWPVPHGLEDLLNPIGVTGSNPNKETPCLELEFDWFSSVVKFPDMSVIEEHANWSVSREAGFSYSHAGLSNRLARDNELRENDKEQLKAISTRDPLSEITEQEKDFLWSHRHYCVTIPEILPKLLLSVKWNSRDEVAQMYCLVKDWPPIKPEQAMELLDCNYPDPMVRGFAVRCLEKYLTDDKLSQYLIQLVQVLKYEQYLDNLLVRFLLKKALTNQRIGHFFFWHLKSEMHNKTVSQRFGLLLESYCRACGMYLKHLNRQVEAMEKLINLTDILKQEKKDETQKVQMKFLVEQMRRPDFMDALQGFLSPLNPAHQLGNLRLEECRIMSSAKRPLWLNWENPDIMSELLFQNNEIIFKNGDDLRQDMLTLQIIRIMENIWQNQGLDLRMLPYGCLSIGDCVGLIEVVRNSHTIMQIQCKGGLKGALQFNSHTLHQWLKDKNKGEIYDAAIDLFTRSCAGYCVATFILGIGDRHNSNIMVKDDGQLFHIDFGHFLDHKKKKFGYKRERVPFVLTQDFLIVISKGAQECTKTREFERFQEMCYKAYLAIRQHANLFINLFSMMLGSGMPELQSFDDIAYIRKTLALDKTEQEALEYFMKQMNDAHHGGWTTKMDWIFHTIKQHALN
PI3Kα, sequence (P27986 whole entry partner, species assumed): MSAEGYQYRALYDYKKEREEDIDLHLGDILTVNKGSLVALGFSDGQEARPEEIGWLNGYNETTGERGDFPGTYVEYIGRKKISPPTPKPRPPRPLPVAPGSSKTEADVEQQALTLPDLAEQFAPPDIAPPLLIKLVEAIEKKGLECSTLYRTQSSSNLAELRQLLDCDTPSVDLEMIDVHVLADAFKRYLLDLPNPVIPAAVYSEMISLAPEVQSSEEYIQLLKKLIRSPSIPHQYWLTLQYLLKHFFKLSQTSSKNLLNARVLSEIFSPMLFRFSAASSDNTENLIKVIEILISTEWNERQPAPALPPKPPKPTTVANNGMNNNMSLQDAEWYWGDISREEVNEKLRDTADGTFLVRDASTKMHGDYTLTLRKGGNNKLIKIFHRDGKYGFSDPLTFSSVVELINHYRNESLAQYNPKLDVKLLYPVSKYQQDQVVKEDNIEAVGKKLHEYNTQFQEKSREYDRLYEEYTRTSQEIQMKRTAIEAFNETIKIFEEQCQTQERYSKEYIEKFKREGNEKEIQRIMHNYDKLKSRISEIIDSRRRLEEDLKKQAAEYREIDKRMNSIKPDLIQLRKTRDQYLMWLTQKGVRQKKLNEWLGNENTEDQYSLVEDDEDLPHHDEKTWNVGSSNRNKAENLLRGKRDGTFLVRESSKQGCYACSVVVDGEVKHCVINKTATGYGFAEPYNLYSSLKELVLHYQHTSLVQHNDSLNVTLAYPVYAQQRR

Usually IC50 stands for the point on the concentration scale where inhibition reaches its midpoint. As to `Cc1c(N2CCOc3ccc(-c4cnc5nc(C6CC6)[nH]c5c4)cc3C2)ncnc1N(C)[C@H](C)c1ccccc1` [Example 535, 6-[7-(2-cyclopropyl-1H-imidazo[4,5-b]pyridin-6-yl)-2,3-dihydro-1,4-benzoxazepin-4(5H)-yl]-N,5-dimethyl-N-[(1R)-1-phenylethyl]pyrimidin-4-amine], the values for the IC50 on PI3Kα and on mTOR/GbL/Raptor (mTORC1) were 1 to 2 µM and 0.25 to 1 µM, respectively.
The corresponding values for `Cc1nc2ncc(-c3ccc4c(c3)CN(c3ncnc5c3ccn5C)CCO4)cc2[nH]1` [Example 557, 7-(2-methyl-1H-imidazo[4,5-b]pyridin-6-yl)-4-(7-methyl-7H-pyrrolo[2,3-d]pyrimidin-4-yl)-2,3,4,5-tetrahydro-1,4-benzoxazepine] are ≥ 2 µM and 0.25 to 1 µM.
Consider `Cc1ncc(S(=O)(=O)N2CCOCC2)c(N2CCOc3ccc(-c4cnc5nc(C)[nH]c5c4)cc3C2)n1` [Example 561, 7-(2-methyl-1H-imidazo[4,5-b]pyridin-6-yl)-4-[2-methyl-5-(morpholin-4-ylsulfonyl)pyrimidin-4-yl]-2,3,4,5-tetrahydro-1,4-benzoxazepine], for which the IC50 on PI3Kα is 1 to 2 µM; on mTOR/GbL/Raptor (mTORC1), 0.25 to 1 µM.
For `Cc1nc2ncc(-c3ccc4c(c3)CN(c3ncnc5c3C(C(F)(F)F)CCC5)CCO4)cc2[nH]1` (stereo not shown) [Example 562, 7-(2-methyl-1H-imidazo[4,5-b]pyridin-6-yl)-4-[5-(trifluoromethyl)-5,6,7,8-tetrahydroquinazolin-4-yl]-2,3,4,5-tetrahydro-1,4-benzoxazepine], the IC50 at PI3Kα was in the range of 1 to 2 µM; on mTOR/GbL/Raptor (mTORC1) it was 0.25 to 1 µM.
In the same order, the values of `CC1(C)CCc2ncnc(N3CCOc4ccc(-c5cnc6c(c5)OCC(=O)N6)cc4C3)c2C1` [Example 572, 7-[4-(6,6-dimethyl-5,6,7,8-tetrahydroquinazolin-4-yl)-2,3,4,5-tetrahydro-1,4-benzoxazepin-7-yl]-2H-pyrido[3,2-b][1,4]oxazin-3(4H)-one] are 1 to 2 µM and ≥ 2 µM.
In the same order, the values of `COC(=O)Nc1cc(-c2ccc3c(c2)CN(c2ncnc4c2CC(C)(C)CC4)CCO3)cnc1Cl` [Example 581, methyl {2-chloro-5-[4-(6,6-dimethyl-5,6,7,8-tetrahydroquinazolin-4-yl)-2,3,4,5-tetrahydro-1,4-benzoxazepin-7-yl]pyridin-3-yl}carbamate] are ≥ 2 µM and 1 to 2 µM.
As for `Cc1ncc(S(=O)(=O)N(C)C)c(N2CCOc3ccc(-c4cnc5nc(C)[nH]c5c4)cc3C2)n1` [Example 611, N,N,2-trimethyl-4-[7-(2-methyl-1H-imidazo[4,5-b]pyridin-6-yl)-2,3-dihydro-1,4-benzoxazepin-4(5H)-yl]pyrimidine-5-sulfonamide], the results for the IC50 on PI3Kα and on mTOR/GbL/Raptor (mTORC1) were 1 to 2 µM and 0.25 to 1 µM, respectively.
The corresponding values for `CC(=O)Nc1cc(-c2ccc3c(c2)CN(c2ncnc4c2CC(C)(C)CC4)CCO3)cnc1Cl` [Example 622, N-{2-chloro-5-[4-(6,6-dimethyl-5,6,7,8-tetrahydroquinazolin-4-yl)-2,3,4,5-tetrahydro-1,4-benzoxazepin-7-yl]pyridin-3-yl}acetamide] are 1 to 2 µM and 0.25 to 1 µM.
In the same order, the values of `CCNC(=O)c1cccc(-c2ccc3c(c2)CN(c2nc(C)nc4cc(OC)ccc24)CCO3)c1` [Example 638, N-ethyl-3-{4-[2-methyl-7-(methyloxy)quinazolin-4-yl]-2,3,4,5-tetrahydro-1,4-benzoxazepin-7-yl}benzamide] are ≥ 2 µM and ≥ 2 µM.
On to `C[C@H](NC(=O)OCc1ccccc1)c1nc2ncc(-c3ccc4c(c3)CN(c3ncnc5c3CC(C)(C)CC5)CCO4)cc2[nH]1` [Example 647, phenylmethyl [(1S)-1-{6-[4-(6,6-dimethyl-5,6,7,8-tetrahydroquinazolin-4-yl)-2,3,4,5-tetrahydro-1,4-benzoxazepin-7-yl]-1H-imidazo[4,5-b]pyridin-2-yl}ethyl]carbamate], for which the IC50 at PI3Kα was ≥ 2 µM; on mTOR/GbL/Raptor (mTORC1), 0.25 to 1 µM.
In the same order, the values of `Cc1cc(N2CCOc3ccc(-c4ccc5[nH]cnc5c4)cc3C2)nc(N)n1` [Example 688, 4-[7-(1H-benzimidazol-5-yl)-2,3-dihydro-1,4-benzoxazepin-4(5H)-yl]-6-methylpyrimidin-2-amine] are 1 to 2 µM and 0.25 to 1 µM.
